Laboratory results from publication PMC6308302, “Identification of Pharmacokinetic Markers for Guanxin Danshen Drop Pills in Rats by Combination of Pharmacokinetics, Systems Pharmacology, and Pharmacodynamic Assays” (Frontiers in Pharmacology, 2018).
“Also recorded” adds a separate entry of the source. Marks after values point to notes of the source that are not given here.

Experiments:
Caco-2 cell monolayers = details: ref Lu et al., 2008, Liu et al., 2009, Hu et al., 2014, Bowles et al., 2017, cited from earlier work; for Papp(apical→basolateral) / Papp(basolateral→apical): Caco-2 cell monolayers, from literature; for apparent permeability in Caco-2 cell monolayers: previous results
[1] = Aqueous solubility test (vortexing in water); assay type: physicochemical; details: for solubility at 5 min: thermodynamic from solid, determined, water, 25 °C, 1 atm; for solubility in water (in words): water at 25 °C
Procedure: Aqueous solubility (S) test of the 17 ingredients was performed by vortexing 10 mg of each ingredient in […] water in a test tube at ambient temperature and 1 atm. After vortexing for 5 min, if the solution is clear, the tested object will be considered as soluble in water. In silico assessment of the physicochemical properties governing permeation and intestinal absorption was carried out for the 17 ingredients studied. Theory aqueous solubility (S) was calculated with ALOGPS 2.1 online software via the Virtual Computational Chemistry Laboratory service (Chemoinformatics Group, Neuherberg, Germany) (VCCLAB^1). The octanol–water partition coefficient (cLogP), the total hydrogen bond count (donors and acceptors), and topological polar surface area (TPSA) were determined using the Molinspiration Property Calculator (Molinspiration Cheminformatics, Bratislava, Slovak Republic^2). Lipinski’s rule of 5 was used to predict the permeability of the compound ([Lipinski et al., 2001]).

[2] = test system: isoprenaline-induced MI in mice; assay: In vivo anti-MI study: isoprenaline-induced myocardial injury (ECG, H&E histology); details: for Histopathology of heart tissue (H&E): 40 mg/kg p.o. for 7 days, isoprenaline-induced MI, 40 mg/kg; for ECG (lead II) findings on the fifth day of the trial: 40 mg/kg p.o., isoprenaline 5 mg/kg on days 4 and 5
[3] = Multiple component PK study in rat plasma after p.o. GDDP (HPLC-MS); details: for determination in rat plasma at the planned successive PK time points / detection in rat plasma: GDDP 0.8 g/kg p.o.; for determination in rat plasma at the planned successive PK time points: 5, 10, 15, 30, 45, 60, and 120 min, LOQ 1.0–1.4 ng/mL; for detection in rat plasma: at 5, 10, 15, 30, 45, or 60 min, LOD 0.5–0.7 ng/mL; for AUC(0-inf) / AUC(0-t) / MRT inf / MRT last / Tmax / Cmax / half-life: Sprague-Dawley, rat, plasma, po
[4] = Stability tests in rat plasma (QC samples, HPLC-MS); details: n=5
Text: Accuracy and precision were expressed by relative error (RE) and coefficient of variance (RSD), respectively.

[5] = 0.4 g/kg, Cmax, rat plasma, GDDP 0.4 g/kg p.o. (Low dose group), n=3
[6] = 0.4 g/kg, t1/2 β, rat plasma, GDDP 0.4 g/kg p.o. (Low dose group), n=3
[7] = 0.8 g/kg, Cmax (high / low plasma drug concentrations), rats, GDDP 0.4 and 0.8 g/kg p.o., classification
[8] = 0.8 g/kg, Cmax, rat plasma, GDDP 0.8 g/kg p.o. (High dose group), n=3
[9] = 0.8 g/kg, t1/2 β (fast / slow elimination type), rats, GDDP 0.4 and 0.8 g/kg p.o., classification
[10] = 0.8 g/kg, t1/2 β, rat plasma, GDDP 0.8 g/kg p.o. (High dose group), n=3
[11] = rat plasma, GDDP 0.4 g/kg p.o. (Low dose group), n=3
[12] = rat plasma, GDDP 0.8 g/kg p.o. (High dose group), n=3
[13] = 24h in auto-sampler vials, spiked 2 ng/mL
[14] = 24h in auto-sampler vials, spiked 400 ng/mL
[15] = 24h in auto-sampler vials, spiked 1600 ng/mL
[16] = Placing plasma for 6h at 4°C, spiked 2 ng/mL
[17] = Placing plasma for 6h at 4°C, spiked 400 ng/mL
[18] = Placing plasma for 6h at 4°C, spiked 1600 ng/mL
[19] = three freeze-thaw cycles, rat plasma, spiked 2 ng/mL
[20] = three freeze-thaw cycles, rat plasma, spiked 400 ng/mL
[21] = three freeze-thaw cycles, rat plasma, spiked 1600 ng/mL

O=C(O)/C=C/c1ccc(O)c(O)c1 [CA, caffeic acid]
Papp(apical→basolateral) (Caco-2 cell monolayers): 4.35^b ×10^-6 cm/s | Papp(basolateral→apical) (Caco-2 cell monolayers): 7.74^b ×10^-6 cm/s | apparent permeability in Caco-2 cell monolayers (Caco-2 cell monolayers): ≥ 10^-6 cm/s | solubility at 5 min [1]: > 10000 µg/mL

C[C@H]1COC2=C1C(=O)C(=O)c1c2ccc2c1CCCC2(C)C [CTS, cryptotanshinone]
Papp(apical→basolateral) (Caco-2 cell monolayers): 1.59^d ×10^-6 cm/s | Papp(basolateral→apical) (Caco-2 cell monolayers): 8.36^d ×10^-6 cm/s | apparent permeability in Caco-2 cell monolayers (Caco-2 cell monolayers): ≥ 10^-6 cm/s | solubility in water (in words) [1]: insoluble | Histopathology of heart tissue (H&E) [2]: remarkably severe histological damage with extensive myocardial lysis and architecture wrecking; also recorded: extremely severe histological damage with extensive myocardial lysis and architecture wrecking | ECG (lead II) findings on the fifth day of the trial [2]: T waves reversed or decreased | determination in rat plasma at the planned successive PK time points [3]: could be determined | detection in rat plasma [3]: could be detected | AUC(0-inf) ([3]; 0.4 g/kg): 1.72 ± 1.24 ng·h/mL | AUC(0-t) ([3]; 0.4 g/kg): 0.84 ± 0.03 ng·h/mL | MRT inf ([3]; 0.4 g/kg): 0.69 ± 0.66 h | MRT last ([3]; 0.4 g/kg): 0.23 ± 0.03 h | Tmax ([3]; 0.4 g/kg): 15 min | Cmax [3, 5]: 2.33 ± 0.49 ng/mL | half-life [3, 6]: 27 ± 27 min | AUC(0-inf) ([3]; 0.8 g/kg): 3.24 ± 1.09 ng·h/mL | AUC(0-t) ([3]; 0.8 g/kg): 2.76 ± 1.18 ng·h/mL | MRT inf ([3]; 0.8 g/kg): 0.84 ± 0.3 h | MRT last ([3]; 0.8 g/kg): 0.56 ± 0.22 h | Tmax ([3]; 0.8 g/kg): 15 min | Cmax [3, 7]: < 10 ng/mL | Cmax [3, 8]: 4.09 ± 1.47 ng/mL | half-life [3, 9]: < 120 min | half-life [3, 10]: 34.2 ± 15.6 min | Cltot [3, 11]: 209.12 ± 151.07 L/h/kg | Cltot [3, 12]: 175.44 ± 49.57 L/h/kg | Stability: Measured [4, 13]: 1.79 ± 0.36 ng/mL | Stability: RE [4, 13]: -10.32% | Stability: Measured [4, 14]: 478.43 ± 27.22 ng/mL | Stability: RE [4, 14]: 19.61% | Stability: Measured [4, 15]: 1852.38 ± 164.86 ng/mL | Stability: RE [4, 15]: 15.77% | Stability: Measured [4, 16]: 1.79 ± 0.26 ng/mL | Stability: RE [4, 16]: -10.47% | Stability: Measured [4, 17]: 438.37 ± 50.69 ng/mL | Stability: RE [4, 17]: 9.59% | Stability: Measured [4, 18]: 1890.21 ± 223.22 ng/mL | Stability: RE [4, 18]: 18.14% | Stability: Measured [4, 19]: 1.62 ± 0.22 ng/mL | Stability: RE [4, 19]: -19.00% | Stability: Measured [4, 20]: 457.79 ± 26.04 ng/mL | Stability: RE [4, 20]: 14.45% | Stability: Measured [4, 21]: 1871.43 ± 321.89 ng/mL | Stability: RE [4, 21]: 16.96%

Cc1cccc2c3c(ccc12)C1=C(C(=O)C3=O)[C@@H](C)CO1 [DHTS I, dihydrotanshinone I]
Papp(apical→basolateral) (Caco-2 cell monolayers): 1.49^d ×10^-6 cm/s | Papp(basolateral→apical) (Caco-2 cell monolayers): 8.28^d ×10^-6 cm/s | apparent permeability in Caco-2 cell monolayers (Caco-2 cell monolayers): ≥ 10^-6 cm/s | solubility in water (in words) [1]: insoluble | Histopathology of heart tissue (H&E) [2]: remarkably severe histological damage with extensive myocardial lysis and architecture wrecking; also recorded: extremely severe histological damage with extensive myocardial lysis and architecture wrecking | ECG (lead II) findings on the fifth day of the trial [2]: T waves reversed or decreased | determination in rat plasma at the planned successive PK time points [3]: could be determined | detection in rat plasma [3]: could be detected | AUC(0-inf) ([3]; 0.4 g/kg): 14.2 ± 17.2 ng·h/mL | AUC(0-t) ([3]; 0.4 g/kg): 12.1 ± 14.4 ng·h/mL | MRT inf ([3]; 0.4 g/kg): 6.93 ± 7.38 h | MRT last ([3]; 0.4 g/kg): 5.17 ± 5.21 h | Tmax ([3]; 0.4 g/kg): 82.8 ± 52.8 min | Cmax [3, 5]: 1.9 ± 1.57 ng/mL | half-life [3, 6]: 161 ± 143 min | AUC(0-inf) ([3]; 0.8 g/kg): 16.1 ± 2.84 ng·h/mL | AUC(0-t) ([3]; 0.8 g/kg): 14.7 ± 2.51 ng·h/mL | MRT inf ([3]; 0.8 g/kg): 7.26 ± 3.47 h | MRT last ([3]; 0.8 g/kg): 5.05 ± 2.03 h | Tmax ([3]; 0.8 g/kg): 49.8 ± 8.4 min | Cmax [3, 7]: < 10 ng/mL | Cmax [3, 8]: 3.1 ± 0.49 ng/mL | half-life [3, 9]: > 156 min | half-life [3, 10]: 334 ± 179 min | Cltot [3, 11]: 6.05 ± 7.34 L/h/kg | Cltot [3, 12]: 2.86 ± 0.46 L/h/kg | Stability: Measured [4, 13]: 2.21 ± 0.23 ng/mL | Stability: RE [4, 13]: 10.31% | Stability: Measured [4, 14]: 464.67 ± 43.51 ng/mL | Stability: RE [4, 14]: 16.17% | Stability: Measured [4, 15]: 1644.43 ± 109.72 ng/mL | Stability: RE [4, 15]: 2.78% | Stability: Measured [4, 16]: 2.23 ± 0.06 ng/mL | Stability: RE [4, 16]: 11.41% | Stability: Measured [4, 17]: 456.85 ± 38.51 ng/mL | Stability: RE [4, 17]: 14.21% | Stability: Measured [4, 18]: 1735.14 ± 230.11 ng/mL | Stability: RE [4, 18]: 8.45% | Stability: Measured [4, 19]: 2.015 ± 0.18 ng/mL | Stability: RE [4, 19]: 2.73% | Stability: Measured [4, 20]: 437.97 ± 37.90 ng/mL | Stability: RE [4, 20]: 9.49% | Stability: RE [4, 21]: 0.88%

O=C(O)C(O)Cc1ccc(O)c(O)c1 (stereo not shown) [DSS, danshensu]
solubility at 5 min [1]: > 10000 µg/mL | detection in rat plasma at more than 15 min after administration ([3]; GDDP 0.4 and 0.8 g/kg B.W.): could not be detected | detection in rat plasma [3]: could be detected | plasma level ([3]; rats, GDDP 0.4 and 0.8 g/kg, more than 15 min after administration, below LOD): < 0.5 ng/mL

O=C(/C=C/c1ccc(O)c2c1[C@H](C(=O)O)[C@@H](c1ccc(O)c(O)c1)O2)O[C@H](Cc1ccc(O)c(O)c1)C(=O)O [LA, lithospermic acid]
Papp(apical→basolateral) (Caco-2 cell monolayers): 0.0816^a ×10^-6 cm/s | Papp(basolateral→apical) (Caco-2 cell monolayers): 0.0413^a ×10^-6 cm/s | solubility at 5 min [1]: > 10000 µg/mL

O=C(O)c1ccc(O)c(O)c1 [PCA, protocatechuic acid]
Papp(apical→basolateral) (Caco-2 cell monolayers): 4.52^b ×10^-6 cm/s | Papp(basolateral→apical) (Caco-2 cell monolayers): 6.91^b ×10^-6 cm/s | apparent permeability in Caco-2 cell monolayers (Caco-2 cell monolayers): ≥ 10^-6 cm/s | solubility at 5 min [1]: > 10000 µg/mL | detection in rat plasma [3]: could be detected

O=Cc1ccc(O)c(O)c1 [PCAL, protocatechuic aldehyde]
Papp(apical→basolateral) (Caco-2 cell monolayers): 12.1^a ×10^-6 cm/s | Papp(basolateral→apical) (Caco-2 cell monolayers): 21.8^a ×10^-6 cm/s | apparent permeability in Caco-2 cell monolayers (Caco-2 cell monolayers): ≥ 10^-6 cm/s | solubility at 5 min [1]: > 10000 µg/mL | detection in rat plasma [3]: could be detected

O=C(/C=C/c1ccc(O)c(O)c1)O[C@H](Cc1ccc(O)c(O)c1)C(=O)O [RA, rosmarinic acid]
Papp(apical→basolateral) (Caco-2 cell monolayers): 0.523^a ×10^-6 cm/s | Papp(basolateral→apical) (Caco-2 cell monolayers): 0.550^a ×10^-6 cm/s | solubility at 5 min [1]: > 10000 µg/mL

CC(C)=CCC[C@](C)(O[C@@H]1O[C@H](CO)[C@@H](O)[C@H](O)[C@H]1O)[C@H]1CC[C@]2(C)[C@@H]1[C@H](O)C[C@@H]1[C@@]3(C)CC[C@H](O)C(C)(C)[C@@H]3[C@@H](O[C@@H]3O[C@H](CO)[C@@H](O)[C@H](O)[C@H]3O[C@@H]3O[C@@H](C)[C@H](O)[C@@H](O)[C@H]3O)C[C@]12C [Re, ginsenoside Re]
Papp(apical→basolateral) (Caco-2 cell monolayers): > 0.1^c ×10^-6 cm/s | Papp(basolateral→apical) (Caco-2 cell monolayers): > 0.1^c ×10^-6 cm/s | solubility at 5 min [1]: > 10000 µg/mL | detection in rat plasma [3]: could be detected

O=C(/C=C/c1ccc(O)c(O)c1/C=C/c1ccc(O)c(O)c1)OC(Cc1ccc(O)c(O)c1)C(=O)O (stereo not shown) [SAA, SA A]
Papp(apical→basolateral) (Caco-2 cell monolayers): 0.0595^a ×10^-6 cm/s | Papp(basolateral→apical) (Caco-2 cell monolayers): 0.0554^a ×10^-6 cm/s | solubility at 5 min [1]: > 10000 µg/mL

O=C(/C=C/c1ccc(O)c2c1C(C(=O)OC(Cc1ccc(O)c(O)c1)C(=O)O)C(c1ccc(O)c(O)c1)O2)OC(Cc1ccc(O)c(O)c1)C(=O)O (stereo not shown) [SAB, SA B]
Papp(apical→basolateral) (Caco-2 cell monolayers): 0.0200^a ×10^-6 cm/s | Papp(basolateral→apical) (Caco-2 cell monolayers): 0.0377^a ×10^-6 cm/s | solubility at 5 min [1]: > 10000 µg/mL
